In patent US20210206817A1, “Metabolically Stable Apelin Analogs in the Treatment of Disease Mediated by the Apelin Receptor” (priority 2014, published 2021):
Values joined by “and” are separate entries in the source; they are usually repeats but may differ in a detail not shown here. Equal values may be shown once. Read-outs that look alike come from different tables or passages of the source. Where a SMILES comes first, the peptide text is derived from it.

Assays:
rat apelin receptor-EGFP [1] = target: T1, rat apelin receptor-EGFP (Rattus norvegicus, UniProt Q9JHG3); assay: Apelin receptor-EGFP internalization, confocal microscopy; format: cell-based; conditions: for EC50: Table 2, read-out: Internalization EC50
T1 construct: expressed in transfected cells
T1 sequence (Q9JHG3 1-377): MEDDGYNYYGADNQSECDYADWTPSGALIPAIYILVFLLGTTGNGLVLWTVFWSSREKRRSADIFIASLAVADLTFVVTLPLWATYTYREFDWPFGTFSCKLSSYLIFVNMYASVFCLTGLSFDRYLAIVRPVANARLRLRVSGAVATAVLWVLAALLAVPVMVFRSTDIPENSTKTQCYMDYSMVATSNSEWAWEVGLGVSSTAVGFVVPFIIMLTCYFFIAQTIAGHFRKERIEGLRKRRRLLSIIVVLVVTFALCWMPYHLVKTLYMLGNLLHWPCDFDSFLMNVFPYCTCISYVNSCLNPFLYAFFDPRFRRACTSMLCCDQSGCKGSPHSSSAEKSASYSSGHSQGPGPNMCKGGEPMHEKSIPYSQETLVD
Procedure: The internalization assay was performed as described previously with CHO cells stably expressing the rat apelin receptor-EGFP (43). […] Cells were then mounted in Aquapolymount (Polysciences, Warrington, Pa., USA) for confocal microscopic analysis (Sec (42) for details).

[2] = test system: anaesthesized normotensive Wistar rats; assay: Arterial blood pressure after i.v. injection; format: in vivo, rat; conditions: for AUC of BP response: 100 nmol i.v., 15 minutes following injection; for Maximal decrease in BP (mmHg) / Time For maximal BP decrease / Time to return to a plateau value / plateau value reached (in brackets): Table 5; for ED50 decrease of MABP: i.v. 5-100 nmol/rat
Procedure: The resulting solution was administered to the rats via a catheter inserted into the right femoral vein, and was immediately followed by 0.2 ml Krebs buffer alone to flush the venous catheter. An additional catheter was inserted into the right femoral artery, as previously described (47), for the monitoring of mean arterial blood pressure (MBP) as previously described (48). The arterial catheter was connected to a COBE CDX III pressure transducer (Phymep, Paris, France) linked to the Maclab system (Phymep, Paris, France). HR measurement was triggered by the blood pressure signal. BP was continuously recorded throughout the experiment. […] Mean AUC for each group were then calculated. Unpaired Student's t test was used to determine whether BP observed in response to substances administered […].) has statistically significant difference.

[3] = test system: water-deprived or euhydrated mice; conditions: i.c.v., Iturrioz 2010; cited from earlier work
[4] = test system: rat aortic rings precontracted by noradrenaline (NA); assay: Isometric tension of aortic rings precontracted by noradrenaline; conditions: for maximal relaxant effect / potency (pD2) of relaxation: precontraction 3×10^−6 M NA
Procedure: The experiments were performed in rat aortic rings as previously described (39). […] The aortas were cleaned of excess connective tissue and fat and cut into rings of approximately 3-4 mm in length. Special care was taken to avoid damaging the luminal surface of the endothelium. […] One end of the aortic ring was connected to a tissue holder and the other to an isometric force transducer (EMKA Technologies, Paris, France). […] During equilibration period, the rings were washed every 30 min. Then, a first relaxation to acetylcholine (Ach, 10^−4 mol/L) was implemented to check the integrity or the absence of the endothelium in rings precontracted with NA (3×10^−8 mol/L). After rinsing with PSS to baseline tension, rings were equilibrated for 90 min. […] Each concentration of the drug was added at the maximal effect of the precedent concentration. The concentration-response curves were continuously recorded on a PC by means of IOX v 2.4 (EMKA Technologies, Paris) for further analysis (Datanalyst v2.1, EMKA Technologies, Paris).

[5] = test system: isolated perfused rat heart; assay: Isolated perfused rat heart, cardiac contractility; conditions: for effect on cardiac contractility (developed pressure): K17F 0.01 to 300 nM, P92 200 and 400 nM
Procedure: Animals were anesthetized with pentobarbital sodium (50 mg/kg intraperitoneally). Heparin (200 IU/kg) was administrated into the femoral vein. Hearts were excised quickly and arrested in ice-cold Krebs-Henseleit solution containing (mM): […] […] Temperature was continuously monitored by a thermoprobe inserted into the right atrium. Hearts beat spontaneously under the sinus rhythm. […] The maximal rate of rise of left ventricular pressure (dP/dtmax) and heart rate were derived from left ventricular pressure. After 20-minutes equilibration period, the hearts were treated by drugs added to the perfusate with an infusion pump (Harvard Apparatus Pump 11) at rate of 100 μL/min for 30 minutes.

rat apelin receptor-EGFP [6] = target: T1, rat apelin receptor-EGFP; assay: [125I]pE13F radioligand binding on CHO membrane preparations
Procedure: Crude membrane preparation from CHO stably expressing the wild-type rat apelin receptor-EGFP, were prepared as previously described (39). […] The reaction was stopped by adding ice-cold binding buffer and filtered through glass microfiber filters (Whatman GF/C filters). Radioactivity was counted in Wizard 1470 Wallac gamma counter (Perkin Elmer, Turku, Finland).

rat apelin receptor-EGFP [7] = target: T1, rat apelin receptor-EGFP; assay: ERK1/2 phosphorylation (Alphascreen); format: cell-based; conditions: Table 7; read-out: ERK1/2 phosphorylation EC50
From the text: ERK1/2 phosphorylation was then monitored by Alphascreen technology.

rat apelin receptor-EGFP [8] = target: T1, rat apelin receptor-EGFP; assay: Inhibition of forskolin-induced cAMP production (HTRF); format: cell-based
Procedure: cAMP was quantified using the cAMP dynamic 2 assay kit (Cisbio Bioassays, Codolet, France) based on homogeneous time-resolved fluorescence (HTRF) technology. The stimulation was done in the stimulation buffer (HBSS, 5 mM Hepes, 0.1% BSA stabilizer, 1 mM IBMX, pH 7.4). Briefly, 2,000/well CHO cells stably expressing the rat apelin receptor-EGFP were added into 384-well plate and stimulated with 10^−6 M forskolin (FSK) and increasing concentrations (10^−14 to 10^−4 M) of apelins or its analogs for 30 min at room temperature. Cells were then lyzed, and cAMP levels were determined following manufacturer instructions.

[9] = Half-life in the blood circulation
[10] = test system: rat glomerular arterioles precontracted by Angiotensin II (AngII); assay: Diameter of glomerular arterioles precontracted by angiotensin II; conditions: for vasorelaxant effect in the presence of L-NAME: NO synthase inhibitor
Procedure: The left kidney of male rats was prepared for microdissection of arterioles as previously described (44). Glomerular arterioles were isolated under stereomicroscopic observation. The afferent and muscular efferent arterioles were isolated with the glomerulus and identify according their morphology and localization in the inner renal cortex as previously described by Helou et al. […] For these experiments afferent and muscular efferent arterioles were microdissected attached to the gomeruli. […] Arteriolar diameters were measured with Adobe Photoshop CS. Diameters were measured on a distance equal to about 100 μm upstream of the glomerulus and triplicate were performed for each arteriole. Calibration was made using a stage micrometer. The average diameter for each experimental condition was used for statistical analysis.

[11] = test system: water-deprived or euhydrated mice; assay: Plasma AVP after i.c.v. injection (RIA); format: in vivo, mouse; conditions: for maximal decrease in AVP release: water-deprived mice
Procedure: Animals were killed 1 min after the injection, and trunk blood (0.5-1 ml) was collected in chilled tubes containing 50 μl of 0.3 M EDTA pH 7.4. […] RIA kit (Peninsula Laboratories International Inc, San Carlo, USA).

[12] = Stability in mouse plasma at 37° C.; conditions: mouse, plasma
Procedure: For each compound, the stock solution (100 μM in water) was diluted in plasma to a final incubation concentration of 5 μM. The incubation at 37° C. was stopped respectively at to and 4 h by adding one volume of ice cold acetonitrile containing 0.1% trifluoroacetic acid. The sample was vortexed for 1 min and then centrifuged at 4° C. before LC-MS injection of the supernatant. Analyses were performed on a Kinetex RP-C18 column (2.6 μm, 100 Å, 50×4.6 mm) using a linear gradient (solvent B in solvent A, solvent A: water/0.05% TFA; solvent B: acetonitrile; flow rate of 2 mL·min^−1: detection at 358 nm). The percentage of remaining test compound relative to t0 was measured by monitoring the peak area of the chromatogram.

AT1 receptor = assay: Selectivity towards the AT1 receptor; format: binding
[13] = competition with [125I]pE13F, CHO membranes, read-out: Ki for the apelin receptor (affinity)
[14] = 10^−6 M forskolin, read-out: IC50 inhibition of forskolin-induced cAMP production
[15] = Table 1, read-out: cAMP production IC50

Structure (SMILES)	EC50 (rat apelin receptor-EGFP [1]) [nM]	AUC of BP response [2] [mmHg·s]	decrease in MABP ([2]; 100 nmol/rat i.v.) [mmHg]	plateau value after maximal decrease ([2]; 100 nmol/rat i.v.) [mmHg]	time of return to plateau value ([2]; 100 nmol/rat i.v.)	Maximal decrease in BP (mmHg) ([2]; 15 nmol i.v.)	Time For maximal BP decrease ([2]; 15 nmol i.v.) [min]	Time to return to a plateau value ([2]; 15 nmol i.v.) [min]	plateau value reached (in brackets) ([2]; 15 nmol i.v.)	ED50 decrease of MABP [2] [nmol]	maximal relaxant effect [4] [%]	potency (pD2) of relaxation [4]	chronotropic effect [5]	effect on cardiac contractility (developed pressure) [5]	Ki (rat apelin receptor-EGFP [6]; [13])	EC50 (rat apelin receptor-EGFP [7]) [nM]	IC50 (rat apelin receptor-EGFP [8]; [14]) [nM]	IC50 (rat apelin receptor-EGFP [8]; [15]) [nM]	vasorelaxant effect in the presence of L-NAME [10]	half-life at 5 μM [12] [min]	also measured
CSCC[C@H](NC(=O)[C@@H]1CCCN1C(=O)CNC(=O)[C@H](CCCCN)NC(=O)[C@H](Cc1c[nH]cn1)NC(=O)[C@H](CO)NC(=O)[C@H](CC(C)C)NC(=O)[C@H](CCCNC(=N)N)NC(=O)[C@@H]1CCCN1C(=O)[C@H](CCCNC(=N)N)NC(=O)[C@H](CCC(N)=O)NC(=O)[C@H](CCCNC(=N)N)NC(=O)[C@H](CCCNC(=N)N)NC(=O)[C@H](Cc1ccccc1)NC(=O)[C@@H](N)CCCCN)C(=O)N1CCC[C@H]1C(=O)N[C@@H](Cc1ccccc1)C(=O)O [K17F, reference compound]	0.26 ± 0.09	−13712±5271	30.5	−12	around 22 min	−7.8	1.2	4.2	baseline	30	87±8	8.30±0.44	No chronotropic effect	dose-dependently increased developed pressure	0.3 ± 0.1 nM	4.08 ± 1.17	0.3 ± 0.2	0.3 ± 0.1	blocked	4.6	(maximal) decrease in mean arterial blood pressure ([2]; 15 nmol/rat i.v.): 7.8 mmHg and 5.4±1 mmHg; time of maximal hypotensive response after injection ([2]; 15 nmol/rat i.v.): 1.2 min; ED50 decrease in plasma AVP [3]: 56 pmol; vasorelaxing effect at maximal concentration ([4]; 100 μM): 93±3%; Ki (rat apelin receptor-EGFP [6]; Table 7, additional experiments vs Table 2, read-out: Binding affinity Ki): 0.06 ± 0.01 nM; Ki (rat apelin receptor-EGFP [6]; [125I]pE13F binding I (nM), Table 2): 0.26 ± 0.12 nM; IC50 (rat apelin receptor-EGFP [8]; Table 3, read-out: IC50 cAMP inhibition): 0.09 ± 0.01 nM; half-life [9]: 0.667 min; plasma AVP levels ([11]; water-deprived mice 24 h, 1 μg i.c.v., saline 425±46 pg/ml): 190 ± 27 pg/mL; maximal decrease in AVP release ([11]; 1 μg i.c.v.): −94%
CCCC[C@H](NC(=O)[C@@H]1CCCN1C(=O)[C@@H](C)NC(=O)[C@H](CCCCN)NC(=O)C(C)(C)NC(=O)[C@H](CO)NC(=O)[C@@H](CC(C)C)NC(=O)[C@H](CCCNC(=N)N)NC(=O)[C@@H]1CCCN1C(=O)[C@H](CCCNC(=N)N)NC(=O)[C@@H](CCC(N)=O)NC(=O)[C@H](CCCNC(=N)N)NC(=O)[C@@H](CCCNC(=N)N)NC(=O)[C@H](Cc1ccccc1)NC(=O)[C@H](CCCCN)NC(C)=O)C(=O)N1CCC[C@H]1C(=O)N[C@@H](Cc1ccc(Br)cc1)C(=O)O [P92, N-Acetyl-Lys-Phe-DArg-Arg-DGln-Arg-Pro-Arg-DLeu-Ser-Aib-Lys-DAla-Pro-Nle-Pro-(4Br)Phe-OH] (HELM PEPTIDE1{[ac].K.F.[dR].R.[dQ].R.P.R.[dL].S.[Aib].K.[dA].P.[Nle].P.[O=C(O)[C@H](Cc1ccc(Br)cc1)N[*:1]]}$$$$V2.0)	0.38 ± 0.11	−34303±4003	55.4	−20	around 35 min	−20.8	1.6	10.8	−12 mmHg	29.5	100±1	7.68±0.57	No chronotropic effect	increase cardiac contractility with an amplitude similar to K17F	0.21 nM and 0.2 nM and 0.09 nM	3.42 ± 2.41	0.2 ± 0.06	0.62 ± 0.77	blocked	24	selectivity towards the AT1 receptor with respect to the apelin receptor (factor) (AT1 receptor): 100; agonist behaviour towards apelin receptor internalization (rat apelin receptor-EGFP [1]): full agonist; duration of the hypotensive effect, fold higher than K17F ([2]; 15 nmol i.v.): 3 fold; maximal hypotensive response, fold higher than K17F ([2]; 15 nmol i.v.): 3 fold; return to baseline after injection ([2]; 15 nmol/rat i.v.): 10.8 min; plateau value after maximal decrease ([2]; 10 or 15 nmol i.v.): −25 mmHg; time of return to plateau value ([2]; 10 or 15 nmol i.v.): around 33 min; IC50 (rat apelin receptor-EGFP [6]; Table 1): 0.21 ± 0.13 nM; agonist behaviour on inhibition of cAMP production induced by forskolin (rat apelin receptor-EGFP [8]): full agonist; IC50 (rat apelin receptor-EGFP [8]; Table 2, read-out: cAMP production IC50): 0.56 ± 0.32 nM; arteriolar diameter after addition to Ang II-preconstricted arterioles ([10]; 500 nM, 1 nM Ang II, from 87.6±1.9% with Ang II, percentage of controls): 98.1±2.5%; effect on plasma AVP levels in euhydrated mice ([11]; euhydrated mice, supramaximal dose 1 μg i.c.v.): no effect on plasma AVP levels; maximal decrease in AVP release ([11]; 0.1 μg i.c.v.): −85%
